The text below walks through data of US9328084B2, “Nitrogen-containing biphenyl compounds, pharmaceutical compositions of same, preparation methods and anti-HIV-1 uses thereof” (Kunming Institute of Botany, The Chinese Academy of Sciences, priority 2010, dated 2016).

The term EC50 denotes the concentration at which the effect is half-maximal. What is called CC50 is the concentration giving 50% cytotoxicity.

Assay type in all cases: cell-based
For one data set, the system named is C8166 cells. Put plainly: Cytotoxicity test on C8166 host cell (MTT colorimetry). The following applies: 3 days. On the procedure: (§1) Cytotoxicity Test of the Compounds 5-12 Obtained in the Above Examples on C8166 Host Cell 100 μL of 4×10^5/mL C8166 cell suspension was mixed with different candidate compound solutions. Set three repeated wells. Meanwhile, set compound-free control wells. Culture was conducted at 37° C. and 5% CO2 for three days. Cell toxicity was tested using MTT colorimetry. OD value was tested using ELX800 ELISA instrument, with the measurement wavelength of 595 nm and the reference wavelength of 630 nm. […] Calculation method and formula: dose-response curve was plotted according to the experimental results; according to Reed & Muench method, 50% effective concentration (EC50) to inhibit viruses, 50% Cytotoxic Concentration (CC50) and anti-HIV-1 activity in the Therapeutic Index (TI) were calculated according to the formula: TI=CC50/EC50.

The subject of another data set is HIV-1IIIB. Put plainly: Inhibition test on HIV-1IIIB induced cytopathic effect (syncytium formation) of C8166. The following applies: for EC50: Human immunodeficiency virus 1, C8166, 72 h, HIV-1IIIB in C8166 cells, 3 days; for Therapeutic index (TI): TI=CC50/EC50; for anti-HIV-1 activity (in words): comment on Table 1, relative to Compound 5. How it is done: Inhibition Test of the Compounds 5-12 Obtained in the Above Examples on HIV-1IIIB Induced Cytopathic Effect (CPE) of C8166 8×10^5/mL C8166 cell suspension was inoculated in 50 μL/well into a 96-well cell culture plate containing compound diluted in multiple proportions in 100 μL/well, to which was then added 50 μL of HIV-1IIIB diluted supernatant (M.O.I. 0.0016). Set three repeated wells, at the same time, set normal cell control wells that are free of the compound. Culture was conducted at 37° C. and 5% CO2 for three days. Syncytium formation was counted using an inverted microscope (100×). EC50 (50% Effective Concentration), i.e., the concentration of the compound that inhibits 50% syncytium formation, was calculated. Calculation method and formula: dose-response curve was plotted according to the experimental results; according to Reed & Muench method, 50% effective concentration (EC50) to inhibit viruses, 50% Cytotoxic Concentration (CC50) and anti-HIV-1 activity in the Therapeutic Index (TI) were calculated according to the formula: TI=CC50/EC50.

Data set [1] is described as follows: Cytotoxicity test on C8166 host cell (MTT colorimetry). The conditions noted are these: human, C8166 cells (T lymphocyte cell line). How it is done:
as §1

[2] abbreviates: read-out: Syncytia inhibition (EC50) 2.
Where [3] appears, read: read-out: Syncytia inhibition (EC50) 1.

The structures appear in SMILES notation. Like-named read-outs stand apart in the source and are kept apart here. A value given as a limit tells only on which side of the number the result lay.

For the compound `COC(=O)c1cc2c(c(OC)c1-c1ccc(N(C)C)cc1)OCO2` [Compound 5], the “toxicity (CC50) 2” value in the data set on C8166 cells is at least 411.41 µg/mL. The EC50 in the data set with HIV-1IIIB (setting [2]) is 0.14 µg/mL. For the same compound, in the data set with HIV-1IIIB, the “Therapeutic index (TI)” value was over 2840.91 and the “anti-HIV-1 activity (in words)” value was “very significant anti-HIV-1 activity”.

Take `COC(=O)c1cc2c(c(OC)c1-c1ccc(N(C)C)c(C)c1)OCO2` [Compound 6]: the values for the CC50 at 3 days in data set [1] (read-out: toxicity (CC50) 1) and in data set [1] (read-out: toxicity (CC50) 2) were over 1250 µM and at least 358 µg/mL, respectively. Also, the EC50 in the data set on HIV-1IIIB (setting [3]) came to 0.49 µM; with HIV-1IIIB (setting [2]) it was 0.14 µg/mL. For the same compound, in the data set with HIV-1IIIB, the “Therapeutic index (TI)” value is recorded as over 2551.02.

As to `COC(=O)c1cc2c(c(OC)c1-c1ccc(N3CCOCC3)cc1)OCO2` [Compound 7], the CC50 at 3 days in data set [1] (read-out: toxicity (CC50) 1) was 881 µM; in data set [1] (read-out: toxicity (CC50) 2), 317 µg/mL. Moreover, the EC50 turned out to be 0.64 µM with HIV-1IIIB (setting [3]) and 0.23 µg/mL in the data set on HIV-1IIIB (setting [2]). The “Therapeutic index (TI)” value in the data set on HIV-1IIIB is 1376.35.

Consider `COC(=O)c1cc2c(c(OC)c1-c1ccc(N(c3ccccc3)c3ccccc3)cc1)OCO2` [Compound 8], for which the values for the CC50 at 3 days in data set [1] (read-out: toxicity (CC50) 1) and in data set [1] (read-out: toxicity (CC50) 2) were 802 µM and 245 µg/mL, respectively. The EC50 stood at 0.93 µM with HIV-1IIIB (setting [3]) and 0.28 µg/mL with HIV-1IIIB (setting [2]). For the same compound, in the data set on HIV-1IIIB, the “Therapeutic index (TI)” value is 862.52.

In the case of `COc1c2c(cc(C(=O)O)c1-c1ccc(N(C)C)cc1)OCO2` [Compound 9], the CC50 at 3 days in data set [1] (read-out: toxicity (CC50) 1) stood at 649 µM; in data set [1] (read-out: toxicity (CC50) 2), 205 µg/mL. The results for the EC50 in the data set with HIV-1IIIB (setting [3]) and in the data set on HIV-1IIIB (setting [2]) were over 25 µM and at least 7.88 µg/mL, respectively. The “Therapeutic index (TI)” value in the data set on HIV-1IIIB is under 25.97. Further, the “anti-HIV-1 activity (in words)” value in the data set with HIV-1IIIB is reported as “activity declined notably”.

As to `COC(=O)c1cc2c(c(OC)c1-c1ccc(N(C)C)cc1)OCO2.Cl` [Compound 10], the “toxicity (CC50) 2” value with C8166 cells is at least 456.38 µg/mL. The EC50 in the data set with HIV-1IIIB (setting [3]) was determined as 0.42 µM. Moreover, the EC50 in the data set with HIV-1IIIB (setting [2]) amounted to 0.15 µg/mL. Moreover, in the data set with HIV-1IIIB, the “Therapeutic index (TI)” value was over 2976.19 and the “anti-HIV-1 activity (in words)” value is given as “activity was increased”.

Take `Br.COC(=O)c1cc2c(c(OC)c1-c1ccc(N(C)C)cc1)OCO2` [Compound 11]: the “toxicity (CC50) 2” value in the data set with C8166 cells amounted to 29.43 µg/mL. Moreover, in the data set on HIV-1IIIB (setting [2]), the EC50 is 0.26 µg/mL. Also, the “Therapeutic index (TI)” value in the data set with HIV-1IIIB is recorded as 114.19.

Regarding `COC(=O)c1cc2c(c(OC)c1-c1ccc([N+](C)(C)Cc3ccccc3)cc1)OCO2.[Br-]` [Compound 12], the CC50 at 3 days in data set [1] (read-out: toxicity (CC50) 1) was found to be 53.3 µM; in data set [1] (read-out: toxicity (CC50) 2) it was 26.6 µg/mL. The figures for the EC50 with HIV-1IIIB (setting [3]) and in the data set on HIV-1IIIB (setting [2]) were 7.5 µM and 3.74 µg/mL, respectively. For the same compound, the “Therapeutic index (TI)” value with HIV-1IIIB is listed as 7.10.
